Test results: patent US5455242A, “Carboxyalkyl tricyclic derivatives useful as inhibitors of enkephalinase and ace” (Merrell Dow Pharmaceuticals Inc., priority 1993, dated 1995)
pKi: −log10 of the molar value.

Molecular target: T1, Enkephalinase (Rattus norvegicus, UniProt P07861)
T1 construct: Enkephalinase is partially purified from rat kidney; from tissue; host or cells: rat kidney (microvilli fraction)
T1 sequence (P07861 1-750): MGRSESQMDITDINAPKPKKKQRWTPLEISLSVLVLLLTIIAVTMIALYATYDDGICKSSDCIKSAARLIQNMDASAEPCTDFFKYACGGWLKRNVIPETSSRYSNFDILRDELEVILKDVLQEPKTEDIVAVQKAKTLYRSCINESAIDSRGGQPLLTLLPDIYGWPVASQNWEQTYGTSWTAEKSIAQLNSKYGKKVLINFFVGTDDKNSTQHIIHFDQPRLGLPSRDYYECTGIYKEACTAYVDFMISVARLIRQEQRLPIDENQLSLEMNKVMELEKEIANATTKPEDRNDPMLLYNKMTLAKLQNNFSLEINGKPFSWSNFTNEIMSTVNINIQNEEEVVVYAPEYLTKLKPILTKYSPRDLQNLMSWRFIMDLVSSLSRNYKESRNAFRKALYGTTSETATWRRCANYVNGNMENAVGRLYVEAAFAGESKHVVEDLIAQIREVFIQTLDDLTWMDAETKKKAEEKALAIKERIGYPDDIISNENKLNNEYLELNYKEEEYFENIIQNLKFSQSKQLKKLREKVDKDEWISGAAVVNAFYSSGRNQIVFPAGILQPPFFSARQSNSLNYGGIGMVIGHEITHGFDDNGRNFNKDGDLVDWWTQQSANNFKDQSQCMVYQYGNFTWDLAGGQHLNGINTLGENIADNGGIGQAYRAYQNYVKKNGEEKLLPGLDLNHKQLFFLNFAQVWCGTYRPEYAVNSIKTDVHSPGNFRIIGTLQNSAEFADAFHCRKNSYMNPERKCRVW
Assay: Enkephalinase inhibition (fluorometric assay, enzyme partially purified from rat kidney)
Format: biochemical
Conditions: 50 mM HEPES pH 7.4, 25° C., 12 μM dansyl-D-AlaGly(p-nitro)PheGly
Text: Enkephalinase is partially purified from rat kidney. The enzyme is extracted from the microvilli fraction by using Triton X-100 according to the method of Malfroy and Schwartz [J. Biol. Chem. 259, 14365-14370 (1984)]or by using a proteolytic treatment according to the method of Almenoff and Orlowski [Biochem. 22, 590-599 (1983)]. The enzyme is further purified by anion exchange chromatography (Mono Q™ column, Pharmacia) using a Pharmacia FPLC system. The enzyme activity may be measured by the fluorometric methods of Florentin et al. [Anal. Biochem. 141, 62-69 (1984)]or of Almenoff and Orlowski [J. Neurochemistry 42, 151-157 (1984)]. The enzyme is assayed in 50 mM HEPES buffer (pH 7.4) in a 3.0 mL reaction volume containing 12 μM of the substrate dansyl-D-AlaGly(p-nitro)PheGly(Km =40 μM) at 25° C. The substrate (and inhibitor) is added from a concentrated stock solution in DMSO (up to 0.1 mL DMSO final volume). The enzyme in a small volume (approximately 0.1 μg of FPLC purified protein) is added to initiate the reaction and the rate of fluorecense increase is recorded continuously using a fluorometer (excitation at 339 nm, emission at 562 nm).

## O=C(O)CC(Cc1ccccc1)C(=O)N[C@H]1Cc2ccccc2[C@H]2CCC[C@@H](C(=O)O)N2C1=O (stereo partly drawn) [101,287, [4S-[4α, 7α(R*), 12bβ]]-7-[(1-Oxo-2-carboxymethyl-3-phenylpropyl)amino]-1,2,3,4,6,7,8,12b-octahydro-6-oxopyrido[2,1-a][2]benzazepine-4-carboxylic acid]
  pKi: 8.30
